Assay results published in ChEMBL document CHEMBL1152093, “The effect of propargylic substitution on the activation and aromatization of enediynes” (Bioorg Med Chem Lett, 1994).

Columns and labels:
Mus musculus [1] = assay: Compound was tested in vivo in mice against Madison 109 lung carcinoma cell line (M109) in a pretreated group over a control group at 64 mg/kg/inj; type: functional
HCT-116 = assay: In vitro cytotoxicity against 116 human colon tumor cell line (HCT116); type: functional, cell-based
Mus musculus [2] = assay: Compound was tested in vivo in mice against Madison 109 lung carcinoma cell line (M109) in a pretreated group over a control group at 128 mg/kg/inj; type: functional
Mus musculus [3] = assay: Compound was tested in vivo in mice against Madison 109 lung carcinoma cell line (M109) in a pretreated group over a control group at 32 mg/kg/inj; type: functional
Mus musculus [4] = assay: Compound was tested in vivo in mice against Madison 109 lung carcinoma cell line (M109) in a pretreated group over a control group at 16 mg/kg/inj; type: functional

SMILES | T/C (Mus musculus [1]) [%] | IC50 (HCT-116) [µM] | T/C (Mus musculus [2]) [%] | T/C (Mus musculus [3]) [%] | T/C (Mus musculus [4]) [%]
CC(C)(C)[Si](C)(C)O[C@@]12C#C/C=C\C#C[C@@H](OC(=O)COc3ccccc3)C(=CCC1)C2=O | 143 | 0.19 |  |  | 
CC(C)(C)[Si](C)(C)O[C@@]12C#C/C=C\C#CCC(=CCC1)C2=O |  | > 2 |  |  | 
CC(C)(C)[Si](C)(C)O[C@@]12C#C/C=C\C#C[C@H](O)C(=CCC1)C2=O |  | > 2 | 115 |  | 
CC(C)(C)[Si](C)(C)O[C@@]12C#C/C=C\C#C[C@@H](F)C(=CCC1)C2=O |  | 0.024 |  | 112 | 
CC(C)(C)[Si](C)(C)O[C@@]12C#C/C=C\C#C[C@@H](O)C(=CCC1)C2=O |  | 0.1 |  |  | 144
